Data: US20210393604A1, “NOVEL BENZIMIDAZOLONE COMPOUND AND PHARMACEUTICAL USE THEREOF” (Sumitomo Dainippon Pharma Co., Ltd., priority 2017, published 2021)

biological target: Nav 1.7 (human SCN9A) (Homo sapiens, UniProt Q15858); assay: Measurement of Na ion current by automated patch clamp assay in cells stably-expressing human SCN9A; assay type: cell-based; settings: compound concentration 10 μmol/L; peak current at 30th depolarizing pulse (10 Hz); holding potential inactivating 50% Nav 1.7 channel (around −60 mV); room temperature; read-out: Inhibitory rate (%) of Na ion current
Experimental: Measurement of Na Ion Current in Voltage-Dependent Na Channel Gene Expressed Cell
Nav 1.7 current was measured by automated patch clamp assay using cells stably-expressing human SCN9A.
Cells Stably-Expressing Human SCN9A
Tetracycline-induced cells stably-expressing SCN9A were obtained from ChanTest Corporation. The cells were passaged in Ham's F-12 medium containing […], 100 units/mL Penicillin-Streptomycin, 0.01 mg/mL Blasticidin, and 400 μg/mL Zeocin. The cell seeded on a glass slide was cultured in Ham's F-12 medium containing 1 μg/mL tetracycline, 1 μg/mL sodium butyrate, 10% fetal bovine serum, and 100 units/mL Penicillin-Streptomycin. Next day, the Na ion current was measured by automated patch clamp assay.
Electrophysiologic Measurement of Na Ion Current
The Na ion current was measured by automated patch clamp assay using the following extracellular solution and intracellular solution.
Extracellular solution (mmol/L): NaCl 130, MgCl2 2, CaCl2) 2, CdCl2 0.1, NiCl2 0.1, Tetraethylammonium-Cl 18, 4-aminopyridine 1, HEPES (4-(2-hydroxyethyl)-1-piperazineethanesulfonic acid) 10, (adjusting pH 7.4 with NaOH)
Intracellular solution (mmol/L): CsF 120, EGTA (ethylene glycol tetraacetic acid) 10, NaCl 15, HEPES 10, (adjusting pH 7.2 with CsOH)
The control of the stimulating pulse and the data acquisition were carried out using EPC10 amplifier and Patch Master Software (HEKA). Data were sampled at 20 kHz, and low-pass filtered at 2.9 kHz. All the measurements were carried out at room temperature. The holding potential was set at a potential inactivating 50% Nav 1.7 channel (around −60 mV), and depolarizing pulse of 20 milliseconds (around 0 mV) was given at a frequency of 10 Hz 30 times. […] The inhibitory rate of the Na ion current by the test compounds was calculated according to the following calculating formula with the peak current value generated by the 30th depolarizing pulse.
Inhibitory rate of Na ion current (%)=100×[(Peak current value in the absence of Test Compound)−(Peak current value in the presence of Test Compound)]/(Peak current value in the absence of Test Compound)

Nav 1.7 (human SCN9A), sequence (Q15858 whole entry): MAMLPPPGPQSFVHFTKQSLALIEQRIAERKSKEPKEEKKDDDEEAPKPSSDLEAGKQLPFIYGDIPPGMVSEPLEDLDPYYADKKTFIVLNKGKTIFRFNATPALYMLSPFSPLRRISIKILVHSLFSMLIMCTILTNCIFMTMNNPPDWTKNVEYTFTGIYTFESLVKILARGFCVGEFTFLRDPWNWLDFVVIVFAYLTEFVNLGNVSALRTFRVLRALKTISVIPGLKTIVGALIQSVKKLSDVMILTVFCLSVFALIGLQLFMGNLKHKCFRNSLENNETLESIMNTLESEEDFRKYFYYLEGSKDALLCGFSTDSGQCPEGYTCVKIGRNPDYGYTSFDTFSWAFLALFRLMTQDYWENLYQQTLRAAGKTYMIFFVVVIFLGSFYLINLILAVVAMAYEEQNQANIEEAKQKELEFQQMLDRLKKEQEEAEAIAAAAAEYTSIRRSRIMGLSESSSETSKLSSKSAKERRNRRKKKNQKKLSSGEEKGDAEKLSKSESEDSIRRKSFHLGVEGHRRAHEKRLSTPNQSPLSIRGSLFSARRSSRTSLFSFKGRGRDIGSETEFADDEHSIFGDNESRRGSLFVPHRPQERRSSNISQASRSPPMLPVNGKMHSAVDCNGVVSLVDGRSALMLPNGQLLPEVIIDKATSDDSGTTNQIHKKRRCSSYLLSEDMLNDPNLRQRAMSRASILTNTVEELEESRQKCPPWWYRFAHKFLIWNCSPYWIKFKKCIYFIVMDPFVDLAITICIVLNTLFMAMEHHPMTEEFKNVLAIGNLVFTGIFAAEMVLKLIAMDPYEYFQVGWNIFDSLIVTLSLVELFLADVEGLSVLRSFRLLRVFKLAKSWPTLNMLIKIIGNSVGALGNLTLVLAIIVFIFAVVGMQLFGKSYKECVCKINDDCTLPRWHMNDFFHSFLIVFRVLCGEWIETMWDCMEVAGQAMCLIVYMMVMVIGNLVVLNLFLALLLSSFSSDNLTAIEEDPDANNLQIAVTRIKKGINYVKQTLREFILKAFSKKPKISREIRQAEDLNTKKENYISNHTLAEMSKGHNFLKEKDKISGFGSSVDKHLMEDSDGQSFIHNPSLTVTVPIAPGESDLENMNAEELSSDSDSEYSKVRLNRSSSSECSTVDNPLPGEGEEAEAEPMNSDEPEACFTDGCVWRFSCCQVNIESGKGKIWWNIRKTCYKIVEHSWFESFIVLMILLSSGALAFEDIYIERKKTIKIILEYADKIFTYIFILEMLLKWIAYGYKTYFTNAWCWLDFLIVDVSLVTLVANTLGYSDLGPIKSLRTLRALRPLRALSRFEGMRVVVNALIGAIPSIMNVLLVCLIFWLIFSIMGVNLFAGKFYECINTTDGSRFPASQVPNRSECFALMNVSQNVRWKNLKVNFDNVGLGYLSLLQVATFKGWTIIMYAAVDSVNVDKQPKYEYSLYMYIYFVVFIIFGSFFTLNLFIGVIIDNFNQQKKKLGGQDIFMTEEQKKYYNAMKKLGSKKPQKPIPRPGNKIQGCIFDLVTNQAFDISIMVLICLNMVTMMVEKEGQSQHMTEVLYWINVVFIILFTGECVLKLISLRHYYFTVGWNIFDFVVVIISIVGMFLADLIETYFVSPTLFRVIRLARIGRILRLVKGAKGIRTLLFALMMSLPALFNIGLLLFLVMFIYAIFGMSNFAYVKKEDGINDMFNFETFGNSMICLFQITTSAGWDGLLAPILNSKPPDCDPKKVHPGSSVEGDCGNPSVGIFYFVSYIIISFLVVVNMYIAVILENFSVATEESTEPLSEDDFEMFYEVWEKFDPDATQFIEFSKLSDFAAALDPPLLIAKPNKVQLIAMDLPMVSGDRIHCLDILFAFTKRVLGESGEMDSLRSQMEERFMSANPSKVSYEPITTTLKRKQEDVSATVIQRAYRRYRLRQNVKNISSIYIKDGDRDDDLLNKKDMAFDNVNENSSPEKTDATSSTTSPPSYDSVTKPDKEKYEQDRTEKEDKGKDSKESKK

Row | SMILES | inhibition at 10 µM [%]
1 | O=c1[nH]c2ccc(Oc3ccc(F)cc3)cc2n1CC1(O)COC1 [Example 7, 6-(4-fluorophenoxy)-1-[(3-hydroxyoxetan-3-yl)methyl]-1,3-dihydro-2H-benzimidazol-2-one] | 40
2 | CC(C)(O)Cn1c(=O)[nH]c2cc(-c3ccc(F)cc3)ccc21 [Example 24, 5-(4-fluorophenyl)-1-(2-hydroxy-2-methylpropyl)-1,3-dihydro-2H-benzimidazol-2-one] | 45
3 | O=c1[nH]c2ccc(Oc3ccc(C(F)(F)F)nc3)cc2n1CC1(O)COC1 [Example 3, 1-[(3-hydroxyoxetan-3-yl)methyl]-6-{[6-(trifluoromethyl)pyridin-3-yl]oxy}-1,3-dihydro-2H-benzimidazol-2-one] | 22
4 | C[C@H](n1c(=O)[nH]c2ccc(Oc3ccc(F)cc3)cc21)C(C)(C)O [Example 10, 6-(4-fluorophenoxy)-1-[(2S)-3-hydroxy-3-methylbutan-2-yl]-1,3-dihydro-2H-benzimidazol-2-one] | 50
5 | O=c1[nH]c2ccc(Oc3ccc(C(F)(F)F)cn3)cc2n1CC1(O)COC1 [Example 2, 1-[(3-hydroxyoxetan-3-yl)methyl]-6-{[5-(trifluoromethyl)pyridin-2-yl]oxy}-1,3-dihydro-2H-benzimidazol-2-one] | 26
6 | C[C@H](n1c(=O)[nH]c2ccc(Oc3ccc(C(F)(F)F)cn3)cc21)C(C)(C)O [Example 9, 1-[(2S)-3-hydroxy-3-methylbutan-2-yl]-6-{[5-(trifluoromethyl)pyridin-2-yl]oxy}-1,3-dihydro-2H-benzimidazol-2-one] | 27
7 | O=c1[nH]c2ccc(Oc3ccc(Cl)cc3)cc2n1CC1(O)COC1 [Example 8, 6-(4-chlorophenoxy)-1-[(3-hydroxyoxetan-3-yl)methyl]-1,3-dihydro-2H-benzimidazol-2-one] | 80
8 | Cn1c(=O)n(CC(C)(C)O)c2cc(Oc3ccc(C(F)(F)F)cn3)ccc21 [Example 13, 3-(2-hydroxy-2-methylpropyl)-1-methyl-5-{[5-(trifluoromethyl)pyridin-2-yl]oxy}-1,3-dihydro-2H-benzimidazol-2-one] | 38
9 | O=c1[nH]c2ccc(Oc3ccc(F)cc3)cc2n1[C@H]1CC[C@@H](O)CC1 [Example 11, 6-(4-fluorophenoxy)-1-(cis-4-hydroxycyclohexyl)-1,3-dihydro-2H-benzimidazol-2-one] | 65
10 | Cn1c(=O)n(CC2(O)COC2)c2cc(Oc3ccc(C(F)(F)F)nc3)ccc21 [Example 15, 3-[(3-hydroxyoxetan-3-yl)methyl]-1-methyl-5-{[6-(trifluoromethyl)pyridin-3-yl]oxy}-1,3-dihydro-2H-benzimidazol-2-one] | 46
11 | CC(C)(O)Cn1c(=O)[nH]c2cc(Oc3ccc(OC(F)(F)F)cc3)ccc21 [Example 25, 1-(2-hydroxy-2-methylpropyl)-5-[4-(trifluoromethoxy)phenoxy]-1,3-dihydro-2H-benzimidazol-2-one] | 42
12 | Cn1c(=O)n(CC2(O)COC2)c2ccc(Oc3ccc(OC(F)(F)F)cc3)cc21 [Example 28, 1-[(3-hydroxyoxetan-3-yl)methyl]-3-methyl-5-[4-(trifluoromethoxy)phenoxy]-1,3-dihydro-2H-benzimidazol-2-one] | 39
13 | CC(C)(O)Cn1c(=O)[nH]c2ccc(-c3ccc(F)cc3)cc21 [Example 22, 6-(4-fluorophenyl)-1-(2-hydroxy-2-methylpropyl)-1,3-dihydro-2H-benzimidazol-2-one] | 43
14 | Cn1c(=O)n(CC2(O)COC2)c2cc(Oc3ccc(OC(F)(F)F)cc3)ccc21 [Example 17, 3-[(3-hydroxyoxetan-3-yl)methyl]-1-methyl-5-[4-(trifluoromethoxy)phenoxy]-1,3-dihydro-2H-benzimidazol-2-one] | 87
15 | O=c1[nH]c2ccc(Oc3ccc(C(F)(F)F)cn3)cc2n1[C@H]1CC[C@@H](O)CC1 [Example 4, 1-(cis-4-hydroxycyclohexyl)-6-{[5-(trifluoromethyl)pyridin-2-yl]oxy}-1,3-dihydro-2H-benzimidazol-2-one] | 39
16 | Cn1c(=O)n(CC2(O)COC2)c2cc(Oc3ccc(Cl)cc3)ccc21 [Example 18, 5-(4-chlorophenoxy)-3-[(3-hydroxyoxetan-3-yl)methyl]-1-methyl-1,3-dihydro-2H-benzimidazol-2-one] | 86
17 | CC(C)(O)Cn1c(=O)[nH]c2ccc(Oc3ccc(C(F)(F)F)cn3)cc21 [Example 1, 1-(2-hydroxy-2-methylpropyl)-6-{[5-(trifluoromethyl)pyridin-2-yl]oxy}-1,3-dihydro-2H-benzimidazol-2-one] | 33
18 | CC(C)(O)Cn1c(=O)[nH]c2ccc(-c3ccc(C(F)(F)F)cc3)cc21 [Example 21, 1-(2-hydroxy-2-methylpropyl)-6-[4-(trifluoromethyl)phenyl]-1,3-dihydro-2H-benzimidazol-2-one] | 96
19 | CC(C)(O)Cn1c(=O)[nH]c2ccc(Oc3ccc(F)cc3)cc21 [Example 6, 6-(4-fluorophenoxy)-1-(2-hydroxy-2-methylpropyl)-1,3-dihydro-2H-benzimidazol-2-one] | 40
20 | CCn1c(=O)n(CC(C)(C)O)c2cc(Oc3ccc(C(F)(F)F)cn3)ccc21 [Example 12, 1-ethyl-3-(2-hydroxy-2-methylpropyl)-5-{[5-(trifluoromethyl)pyridin-2-yl]oxy}-1,3-dihydro-2H-benzimidazol-2-one] | 14
21 | Cn1c(=O)n(CC2(O)COC2)c2cc(Oc3ccc(C(F)(F)F)cn3)ccc21 [Example 14, 3-[(3-hydroxyoxetan-3-yl)methyl]-1-methyl-5-{[5-(trifluoromethyl)pyridin-2-yl]oxy}-1,3-dihydro-2H-benzimidazol-2-one] | 39
22 | CC(C)(O)Cn1c(=O)[nH]c2cc(-c3ccc(C(F)(F)F)nc3)ccc21 [Example 23, 1-(2-hydroxy-2-methylpropyl)-5-[6-(trifluoromethyl)pyridin-3-yl]-1,3-dihydro-2H-benzimidazol-2-one] | 36
23 | CC(C)(O)Cn1c(=O)[nH]c2ccc(-c3ccc(C(F)(F)F)cn3)cc21 [Example 20, 1-(2-hydroxy-2-methylpropyl)-6-[5-(trifluoromethyl)pyridin-2-yl]-1,3-dihydro-2H-benzimidazol-2-one] | 29
24 | O=c1[nH]c2cc(Oc3ccc(OC(F)(F)F)cc3)ccc2n1CC1(O)COC1 [Example 27, 1-[(3-hydroxyoxetan-3-yl)methyl]-5-[4-(trifluoromethoxy)phenoxy]-1,3-dihydro-2H-benzimidazol-2-one] | 38
25 | CC(C)(O)Cn1c(=O)[nH]c2cc(Oc3ccc(C(F)(F)F)cn3)ccc21 [Example 26, 1-(2-hydroxy-2-methylpropyl)-5-{[5-(trifluoromethyl)pyridin-2-yl]oxy}-1,3-dihydro-2H-benzimidazol-2-one] | 32
26 | Cn1c(=O)n(CC2(O)COC2)c2cc(Oc3ccc(F)cc3)ccc21 [Example 16, 5-(4-fluorophenoxy)-3-[(3-hydroxyoxetan-3-yl)methyl]-1-methyl-1,3-dihydro-2H-benzimidazol-2-one] | 61
27 | O=c1[nH]c2ccc(Oc3ccc(OC(F)(F)F)cc3)cc2n1CC1(O)COC1 [Example 5, 1-[(3-hydroxyoxetan-3-yl)methyl]-6-[4-(trifluoromethoxy)phenoxy]-1,3-dihydro-2H-benzimidazol-2-one] | 86
28 | CC(C)(O)Cn1c(=O)[nH]c2ccc(-c3ccc(C(F)(F)F)nc3)cc21 [Example 19, 1-(2-hydroxy-2-methylpropyl)-6-[6-(trifluoromethyl)pyridin-3-yl]-1,3-dihydro-2H-benzimidazol-2-one] | 8
